Results: patent publication US5389627A, “Cephem compounds” (priority 1993, dated 1995)
≈ marks a conversion by molar mass, not a printed value.

How the values were obtained:
Test in all cases: In vitro antibacterial activity, minimum inhibitory concentration
Type in all cases: cell-based
[1] = test system: E.coli ATCC25922; conditions: Escherichia coli; E.coli ATCC25922; read-out: Minimum Inhibitory Concentration (MIC)
Description: (§1) As reference compounds, Cefotaxime (CTX), Ceftazidime (CAZ) and Cefpirome (CPR) were employed.

[2] = test system: P.rettgeri ATCC9919; conditions: Providencia rettgeri; P.rettgeri ATCC9919; read-out: Minimum Inhibitory Concentration (MIC)
Description: as §1

[3] = test system: P.aeruginosa C2027; conditions: Pseudomonas aeruginosa; P.aeruginosa C2027; read-out: Minimum Inhibitory Concentration (MIC)
Description: as §1

[4] = test system: S.Faecalis ATCC29212; conditions: Enterococcus faecalis
Description: as §1

[5] = test system: S.aureus C4036; conditions: Staphylococcus aureus; S.aureus C4036; read-out: Minimum Inhibitory Concentration (MIC)
Description: as §1

[6] = test system: S.epidermidis ATCC12228; conditions: Staphylococcus epidermidis; S.epidermidis ATCC12228; read-out: Minimum Inhibitory Concentration (MIC)
Description: as §1

[7] = test system: E.cloacae C4009; conditions: Enterobacter cloacae; E.cloacae C4009; read-out: Minimum Inhibitory Concentration (MIC)
Description: as §1

[8] = test system: MRSA C2208; conditions: Staphylococcus aureus; MRSA C2208; read-out: Minimum Inhibitory Concentration (MIC)
Description: as §1

[9] = test system: P.mirabilis ATCC25933; conditions: Proteus mirabilis; P.mirabilis ATCC25933; read-out: Minimum Inhibitory Concentration (MIC)
Description: as §1

[10] = test system: P.aeruginosa ATCC10145; conditions: Pseudomonas aeruginosa; P.aeruginosa ATCC10145; read-out: Minimum Inhibitory Concentration (MIC)
Description: as §1

[11] = test system: P.aeruginosa C4070; conditions: Pseudomonas aeruginosa; P.aeruginosa C4070; read-out: Minimum Inhibitory Concentration (MIC)
Description: as §1

[12] = test system: S.aureus Smith; conditions: Staphylococcus aureus; S.aureus Smith; read-out: Minimum Inhibitory Concentration (MIC)
Description: as §1

[13] = test system: K.oxytoca C4022; conditions: Klebsiella oxytoca; K.oxytoca C4022; read-out: Minimum Inhibitory Concentration (MIC)
Description: as §1

[14] = test system: P.aeruginosa ATCC27853; conditions: Pseudomonas aeruginosa; P.aeruginosa ATCC27853; read-out: Minimum Inhibitory Concentration (MIC)
Description: as §1

[15] = test system: E.coli C4002; conditions: Escherichia coli; E.coli C4002; read-out: Minimum Inhibitory Concentration (MIC)
Description: as §1

[16] = test system: E.coli ATCC10536; conditions: Escherichia coli; E.coli ATCC10536; read-out: Minimum Inhibitory Concentration (MIC)
Description: as §1

[17] = test system: S.pyogenes ATCC 8668; conditions: Streptococcus pyogenes, ATCC8668; S.pyogenes ATCC 8668; read-out: Minimum Inhibitory Concentration (MIC)
Description: as §1

[18] = test system: S.marcescens C1052; conditions: Serratia marcescens; S.marcescens C1052; read-out: Minimum Inhibitory Concentration (MIC)
Description: as §1

[19] = test system: K.pneumoniae ATCC10031; conditions: Klebsiella pneumoniae; K.pneumoniae ATCC10031; read-out: Minimum Inhibitory Concentration (MIC)
Description: as §1

[20] = test system: S.aureus ATCC29213; conditions: Staphylococcus aureus; S.aureus ATCC29213; read-out: Minimum Inhibitory Concentration (MIC)
Description: as §1

[21] = test system: S.marcescens ATCC27117; conditions: Serratia marcescens; S.marcescens ATCC27117; read-out: Minimum Inhibitory Concentration (MIC)
Description: as §1

[22] = test system: S.pyogenes C4003; conditions: Streptococcus pyogenes; S.pyogenes C4003; read-out: Minimum Inhibitory Concentration (MIC)
Description: as §1

[23] = test system: K.pneumoniae C1040; conditions: Klebsiella pneumoniae; K.pneumoniae C1040; read-out: Minimum Inhibitory Concentration (MIC)
Description: as §1

[24] = test system: E.cloacae C4008; conditions: Enterobacter cloacae; E.cloacae C4008; read-out: Minimum Inhibitory Concentration (MIC)
Description: as §1

[25] = test system: S.typhimurium C4045; conditions: Salmonella enterica; S.typhimurium C4045; read-out: Minimum Inhibitory Concentration (MIC)
Description: as §1

Row | SMILES | MIC [1] [µg/mL] | MIC [2] [µg/mL] | MIC [3] [µg/mL] | MIC [4] [µg/mL] | MIC [5] [µg/mL] | MIC [6] [µg/mL] | MIC [7] [µg/mL] | MIC [8] [µg/mL] | MIC [9] [µg/mL] | MIC [10] [µg/mL] | MIC [11] [µg/mL] | MIC [12] [µg/mL] | MIC [13] [µg/mL] | MIC [14] [µg/mL] | MIC [15] [µg/mL] | MIC [16] [µg/mL] | MIC [17] [µg/mL] | MIC [18] [µg/mL] | MIC [19] [µg/mL] | MIC [20] [µg/mL] | further results
1 | CO/N=C(\C(=O)N[C@@H]1C(=O)N2C(C(=O)[O-])=C(C[n+]3ccc4[nH]c(=NC#N)[nH]c4c3)CS[C@H]12)c1nsc(N)n1 [Ex. 4, 7-β-[(Z)-2-(5-Amino-1,2,4-thiadiazol-3-yl)-2-methoxyiminoacetamido]-3-[2-(1H,3H)-cyanoimine-imidazo[4,5-c]pyridiniummethyl]-3-cephem-4-carboxylate] | 0.1 (≈ 0.18 µM) | 0.013 (≈ 0.0234 µM) | 6.25 (≈ 11.2 µM) | > 100 | 3.13 (≈ 5.63 µM) | 1.56 (≈ 2.81 µM) | 0.05 (≈ 0.09 µM) | > 100 | 0.025 (≈ 0.045 µM) | 12.5 (≈ 22.5 µM) | 12.5 (≈ 22.5 µM) | 3.13 (≈ 5.63 µM) | 12.5 (≈ 22.5 µM) | 25 (≈ 45 µM) | 0.1 (≈ 0.18 µM) | 0.05 (≈ 0.09 µM) | 0.007 (≈ 0.0126 µM) | 0.05 (≈ 0.09 µM) | 0.013 (≈ 0.0234 µM) | 3.13 (≈ 5.63 µM) | MIC [21]: 0.05 µg/mL (≈ 0.09 µM); MIC [22]: 0.007 µg/mL (≈ 0.0126 µM); MIC [23]: 0.025 µg/mL (≈ 0.045 µM); MIC [24]: 0.05 µg/mL (≈ 0.09 µM); MIC [25]: 0.05 µg/mL (≈ 0.09 µM)
2 | CO/N=C(\C(=O)N[C@@H]1C(=O)N2C(C(=O)O)=C(COC(C)=O)CS[C@H]12)c1csc(N)n1 [CTX, Cefotaxime, reference compound] | 0.1 (≈ 0.22 µM) | 0.004 (≈ 0.00878 µM) | 3.13 (≈ 6.87 µM) | > 100 | 1.56 (≈ 3.43 µM) | 0.78 (≈ 1.71 µM) | 0.1 (≈ 0.22 µM) | > 100 | 0.025 (≈ 0.0549 µM) | 25 (≈ 54.9 µM) | 50 (≈ 110 µM) | 1.56 (≈ 3.43 µM) | 0.78 (≈ 1.71 µM) | 25 (≈ 54.9 µM) | 0.05 (≈ 0.11 µM) | 0.025 (≈ 0.0549 µM) | 0.004 (≈ 0.00878 µM) | 0.2 (≈ 0.439 µM) | 0.002 (≈ 0.00439 µM) | 1.56 (≈ 3.43 µM) | MIC [21]: 0.1 µg/mL (≈ 0.22 µM); MIC [22]: 0.004 µg/mL (≈ 0.00878 µM); MIC [23]: 0.025 µg/mL (≈ 0.0549 µM); MIC [24]: 0.025 µg/mL (≈ 0.0549 µM); MIC [25]: 0.05 µg/mL (≈ 0.11 µM)
3 | CO/N=C(\C(=O)N[C@@H]1C(=O)N2C(C(=O)[O-])=C(C[n+]3ccc4c(c3)NC(=C[N+](=O)[O-])N4)CS[C@H]12)c1csc(N)n1 [Ex. 1] | 0.1 (≈ 0.174 µM) | 0.013 (≈ 0.0227 µM) | 6.25 (≈ 10.9 µM) | > 100 | 1.56 (≈ 2.72 µM) | 0.78 (≈ 1.36 µM) | 0.2 (≈ 0.349 µM) | > 100 | 0.1 (≈ 0.174 µM) | 50 (≈ 87.2 µM) | > 100 | 0.78 (≈ 1.36 µM) | 6.25 (≈ 10.9 µM) | 50 (≈ 87.2 µM) | 0.1 (≈ 0.174 µM) | 0.05 (≈ 0.0872 µM) | 0.007 (≈ 0.0122 µM) | 0.2 (≈ 0.349 µM) | 0.025 (≈ 0.0436 µM) | 1.56 (≈ 2.72 µM) | MIC [21]: 0.1 µg/mL (≈ 0.174 µM); MIC [22]: 0.007 µg/mL (≈ 0.0122 µM); MIC [23]: 0.025 µg/mL (≈ 0.0436 µM); MIC [24]: 0.05 µg/mL (≈ 0.0872 µM); MIC [25]: 0.1 µg/mL (≈ 0.174 µM)
